Source: patent US4472305A, “Hexapeptide amides” (Sterling Drug Inc., priority 1983, dated 1984)
pIC50: −log10 of the molar value. Non-standard residues stand in square brackets, D forms with d. Residues, ends and D or L forms follow the SMILES beside them. Phe(4-Cl) = N[C@@H](Cc1ccc(Cl)cc1)C(=O)O; dNMeW = CN[C@H](Cc1c[nH]c2ccccc12)C(=O)O; Gly(NCH2CH2Ph) = O=C(O)CNCCc1ccccc1; NMeF = CN[C@@H](Cc1ccccc1)C(=O)O; 4Pal = N[C@@H](Cc1ccncc1)C(=O)O; Dap(Me2) = CN(C)C[C@H](N)C(=O)O; d4Pal = N[C@H](Cc1ccncc1)C(=O)O; dPhg = N[C@@H](C(=O)O)c1ccccc1; NMeL = CN[C@@H](CC(C)C)C(=O)O; Nle = CCCC[C@H](N)C(=O)O; Nphe = O=C(O)CNCc1ccccc1; Dap = NC[C@H](N)C(=O)O; Sar = CNCC(=O)O

What was measured:
[1] = biological target: T1, SP receptor (Rattus norvegicus, UniProt P14600); experiment: 3H-SP binding test, rat submaxillary gland tissue; conditions: for inhibition at 30 µM: read-out: 3H-SP Binding % Inhibition; for effect on 3H-SP binding (specificity): rat submaxillary gland or brain tissue preparation, tissue not specified
T1 construct: from tissue; host or cells: rat submaxillary gland (crude tissue suspension)
Procedure: (§1) Crude rat submaxillary gland or brain tissue is suspended in buffer containing protease inhibitors (and calcium ions and magnesium ions in the case of brain tissue) and incubated under nitrogen atmosphere with ^3 H-SP and test compound. The bound SP is then separated from free SP by filtration and quantitated by liquid scintillation spectroscopy. This test meets the criteria of reversibility, saturability, sensitivity to known SP agonists and antagonists, and specificity for an SP receptor binding assay.
(§2) With regard to reversibility, addition of unlabelled SP causes a gradual decrease in bound ^3 H-SP, showing that SP is not irreversibly bound to the receptors in the tissue. With regard to saturability, the amount of bound ^3 H-SP in the preparation increases in direct proportion to the concentration of ^3 H-SP added until a saturation point is reached. […] With regard to sensitivity, known SP agonists and antagonists inhibit ^3 H-SP binding.
(§3) The results are expressed either as percent inhibition at a concentration of 30 micromoles per liter (μM) or as an IC50 calculated as the concentration in micromoles per liter.
(§4) The ^3 H-SP binding test results were obtained using rat submaxillary gland tissue for Examples 1-34 and rat brain tissue for Examples 35-42.

[2] = test system: longitudinal muscle of guinea pig terminal ileum; experiment: Guinea pig ileum test (SP agonist and antagonist effect); format: cell-based; conditions: for Guinea Pig Ileum % Agonism (potency relative to SP): contraction of ileum longitudinal muscle strips, relative molar potency vs SP
Procedure: Strips of longitudinal muscle derived from terminal ileum of adult male guinea pigs (Charles River, 400-600 g.) are mounted in 5-ml. organ baths containing oxygenated Krebs solution containing 1 μM each of atropine and pyrilamine maintained at 30-33 C. and connected to isometric transducers. Following tissue equilibration and repeated washing (45-60 min.), SP or an appropriate reference agonist is added cumulatively to the bath and contractions of the tissue are recorded. The bath is washed thoroughly and 30-45 min. is allowed to elapse before construction of a second reference agonist curve to assure reproducibility of the responses. Test compounds are similarly evaluated for agonist activity up to a maximum concentration of 10-100 μM. […] When appropriate, relative molar potency ratios are calculated (EC50 reference/ED50 test drug). […] The effects of several concentrations of test antagonist, pooled across separate experiments, provide dose-ratio (EC50 shift) data for a standard Schild plot analysis, with computation of the pA2.

[3] = biological target: T1, SP receptor; experiment: 3H-SP binding test, rat brain tissue; conditions: rat brain tissue (Examples 35-42); for inhibition at 30 µM: 30 μM test compound
Procedure: as §1, §2, §3, §4

[4] = 30 μM test compound, rat submaxillary gland tissue (Examples 1-34)

T1 sequence (P14600 whole entry): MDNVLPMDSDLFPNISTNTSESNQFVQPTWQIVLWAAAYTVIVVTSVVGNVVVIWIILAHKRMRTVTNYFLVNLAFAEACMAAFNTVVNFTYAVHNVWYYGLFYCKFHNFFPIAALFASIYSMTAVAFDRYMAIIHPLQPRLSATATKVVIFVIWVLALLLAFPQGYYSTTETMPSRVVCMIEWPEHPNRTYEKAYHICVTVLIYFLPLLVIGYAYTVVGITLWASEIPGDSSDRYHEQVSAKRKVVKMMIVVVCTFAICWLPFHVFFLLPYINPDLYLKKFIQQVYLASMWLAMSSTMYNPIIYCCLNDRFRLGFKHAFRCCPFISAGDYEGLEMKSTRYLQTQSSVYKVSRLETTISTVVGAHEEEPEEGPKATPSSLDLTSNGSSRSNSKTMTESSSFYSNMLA

Compound | inhibition at 30 µM [1, 4] [%] | Guinea Pig Ileum % Agonism (potency relative to SP) [2] [%] | also measured
CSCC[C@H](NC(=O)[C@H](CC(C)C)NC(=O)[C@@H](Cc1ccncc1)NC(=O)[C@H](Cc1ccccc1)NC(=O)[C@H](Cc1ccccc1)NC(=O)[C@@H]1CCCN1)C(N)=O [Example 20] (H-PFF[d4Pal]LM-NH2) | 20 | – | –
HPro-Phe-D,LBpa-Gly-Leu-MetNH2 [Example 18] | – | 33 | 3H-SP Binding % Inhibition [1, 4]: 90%
CSCC[C@H](NC(=O)[C@H](CC(C)C)NC(=O)[C@@H](CCCCN)NC(=O)[C@H](Cc1ccccc1)NC(=O)[C@@H](Cc1c[nH]c2ccccc12)NC(=O)[C@@H]1CCCN1)C(N)=O [Example 33, HPro-DTrp-Phe-DLys-Leu-MetNH2] (H-P[dW]F[dK]LM-NH2) | 15 | – | –
CSCC[C@H](NC(=O)[C@H](CC(C)C)N(C)C(=O)CNC(=O)[C@H](Cc1ccccc1)NC(=O)[C@H](Cc1ccccc1)NC(=O)[C@@H]1CCCN1)C(N)=O [Example 5, HPro-Phe-Phe-Gly-MeLeu-MetNH2] (H-PFFG[NMeL]M-NH2) | 75 | – | –
COc1cc(CNC(=O)CCCC/C=C/C(C)C)ccc1O [capsaicin, reference compound] | – | – | effect on 3H-SP binding (specificity) [1]: do not affect
CSCC[C@H](NC(=O)[C@H](CC(C)C)NC(=O)CNC(=O)[C@H](Cc1ccccc1)NC(=O)[C@@H](Cc1ccccc1)NC(=O)[C@@H]1CCCN1)C(N)=O [Example 9, HPro-DPhe-Phe-Gly-Leu-MetNH2] (H-P[dF]FGLM-NH2) | 22 | 0.0009 | Guinea Pig Ileum pA2 [2]: 5.6
CSCC[C@H](NC(=O)[C@H](CC(C)C)NC(=O)[C@H](CCC(=O)O)NC(=O)[C@H](Cc1ccccc1)NC(=O)[C@H](Cc1ccccc1)NC(=O)[C@@H]1CCCN1)C(N)=O [Example 15, HPro-Phe-Phe-Glu-Leu-MetNH2] (H-PFFELM-NH2) | 10 | 0.004 | –
CSCC[C@H](NC(=O)[C@H](CC(C)C)NC(=O)[C@@H](Cc1c[nH]c2ccccc12)NC(=O)CNC(=O)[C@@H](Cc1c[nH]c2ccccc12)NC(=O)[C@@H]1CCCN1)C(N)=O [Example 39, HPro-DTrp-Gly-DTrp-Leu-MetNH2] (H-P[dW]G[dW]LM-NH2) | – | – | inhibition at 30 µM [3]: 46%
CSCC[C@H](NC(=O)[C@H](CC(C)C)NC(=O)[C@@H](Cc1c[nH]c2ccccc12)N(C)C(=O)[C@H](Cc1ccccc1)NC(=O)[C@@H](Cc1c[nH]c2ccccc12)NC(=O)[C@@H]1CCCN1)C(N)=O [Example 41, HPro-DTrp-Phe-MeDTrp-Leu-MetNH2] (H-P[dW]F[dNMeW]LM-NH2) | – | – | inhibition at 30 µM [3]: 79%; pIC50 [3]: 4.88
CSCC[C@H](NC(=O)[C@H](CC(C)C)NC(=O)CNC(=O)[C@H](Cc1ccc(Cl)cc1)NC(=O)[C@H](Cc1ccc(Cl)cc1)NC(=O)[C@@H]1CCCN1)C(N)=O [Example 37, HPro-Pcp-Pcp-Gly-Leu-MetNH2] (H-P[Phe(4-Cl)][Phe(4-Cl)]GLM-NH2) | – | – | inhibition at 30 µM [3]: 62%
CSCC[C@H](NC(=O)[C@H](CC(C)C)NC(=O)CNC(=O)[C@H](Cc1ccccc1)NC(=O)[C@H](Cc1ccccc1)NC(=O)[C@H]1CCCN1)C(N)=O [Example 10, HDPro-Phe-Phe-Gly-Leu-MetNH2] (H-[dP]FFGLM-NH2) | 65 | 10 | –
CSCC[C@H](NC(=O)[C@H](CC(C)C)NC(=O)CN(C)C(=O)[C@H](Cc1ccccc1)NC(=O)[C@H](Cc1ccccc1)NC(=O)[C@@H]1CCCN1)C(N)=O [Example 3, HPro-Phe-Phe-Sar-Leu-MetNH2] (H-PFF[Sar]LM-NH2) | 93 | 27 | –
CSCC[C@H](NC(=O)[C@H](CC(C)C)NC(=O)[C@@H](C)NC(=O)[C@H](Cc1ccccc1)NC(=O)[C@H](Cc1ccccc1)NC(=O)[C@@H]1CCCN1)C(N)=O [Example 1, HPro-Phe-Phe-DAla-Leu-MetNH2] (H-PFF[dA]LM-NH2) | 17 | 0.7 | –
CSCC[C@H](NC(=O)[C@@H](CC(C)C)NC(=O)CNC(=O)[C@H](Cc1ccccc1)NC(=O)[C@H](Cc1ccccc1)NC(=O)[C@@H]1CCCN1)C(N)=O [Example 4, HPro-Phe-Phe-Gly-DLeu-MetNH2] (H-PFFG[dL]M-NH2) | 17 | 0.3 | –
CSCC[C@H](NC(=O)[C@H](CC(C)C)NC(=O)[C@H](Cc1ccncc1)NC(=O)[C@H](Cc1ccccc1)NC(=O)[C@H](Cc1ccccc1)NC(=O)[C@@H]1CCCN1)C(N)=O [Example 19] (H-PFF[4Pal]LM-NH2) | 42 | – | –
CSCC[C@H](NC(=O)[C@H](CC(C)C)NC(=O)[C@@H](CCCNC(=N)N)NC(=O)[C@H](Cc1ccccc1)NC(=O)[C@@H](Cc1c[nH]c2ccccc12)NC(=O)[C@@H]1CCCN1)C(N)=O [Example 34, HPro-DTrp-Phe-DArg-Leu-MetNH2] (H-P[dW]F[dR]LM-NH2) | 20 | 5.2 | –
CSCC[C@H](NC(=O)[C@H](CC(C)C)NC(=O)CNC(=O)[C@@H](Cc1ccccc1)NC(=O)[C@H](Cc1ccccc1)NC(=O)[C@@H]1CCCN1)C(N)=O [Example 7, HPro-Phe-DPhe-Gly-Leu-MetNH2] (H-PF[dF]GLM-NH2) | 48 | 0.7 | –
CSCC[C@H](NC(=O)[C@H](CC(C)C)NC(=O)[C@@H](Cc1ccccc1)NC(=O)[C@H](Cc1ccccc1)NC(=O)[C@H](NC(=O)[C@@H]1CCCN1)c1ccccc1)C(N)=O [Example 28, HPro-DPhg-Phe-DPhe-Leu-MetNH2] (H-P[dPhg]F[dF]LM-NH2) | – | – | inhibition at 30 µM [1]: 33%
CSCC[C@H](NC(=O)[C@H](CC(C)C)NC(=O)[C@@H](Cc1ccccc1)NC(=O)CN(Cc1ccccc1)C(=O)[C@@H](Cc1ccccc1)NC(=O)[C@@H]1CCCN1)C(N)=O [Example 30, HPro-DPhe-Bgl-DPhe-Leu-MetNH2] (H-P[dF][Nphe][dF]LM-NH2) | 40 | – | –
CSCC[C@H](NC(=O)[C@H](CN(C)C)NC(=O)CNC(=O)[C@H](Cc1ccccc1)NC(=O)[C@H](Cc1ccccc1)NC(=O)[C@@H]1CCCN1)C(N)=O [Example 16, HPro-Phe-Phe-Gly-Gal-MetNH2] (H-PFFG[Dap(Me2)]M-NH2) | 13 | – | –
CSCC[C@H](NC(=O)[C@H](CC(C)C)N1CC[C@H](NC(=O)[C@H](Cc2ccccc2)NC(=O)[C@H](Cc2ccccc2)NC(=O)[C@@H]2CCCN2)C1=O)C(N)=O [Example 14, HPro-Phe-Phe-CabLeu-MetNH2] | 10 | – | –
NCC(CC(=O)O)c1ccc(Cl)cc1 (centres unmarked) [baclofen, reference compound] | – | – | effect on 3H-SP binding (specificity) [1]: do not affect
CSCC[C@H](NC(=O)[C@H](CC(C)C)NC(=O)[C@@H](Cc1ccccc1)NC(=O)CN(CCc1ccccc1)C(=O)[C@@H](Cc1ccccc1)NC(=O)[C@@H]1CCCN1)C(N)=O [Example 32, HPro-DPhe-Pgl-DPhe-Leu-MetNH2] (H-P[dF][Gly(NCH2CH2Ph)][dF]LM-NH2) | 40 | – | –
CSCC[C@@H](NC(=O)[C@H](CC(C)C)NC(=O)CNC(=O)[C@H](Cc1ccccc1)NC(=O)[C@H](Cc1ccccc1)NC(=O)[C@@H]1CCCN1)C(N)=O [Example 6, HPro-Phe-Phe-Gly-Leu-DMetNH2] (H-PFFGL[dM]-NH2) | 8 | 4 | –
CSCC[C@H](NC(=O)[C@H](CC(C)C)NC(=O)[C@H](CN)NC(=O)[C@H](Cc1ccccc1)NC(=O)[C@H](Cc1ccccc1)NC(=O)[C@@H]1CCCN1)C(N)=O [Example 13, HPro-Phe-Phe-LDap-Leu-MetNH2] (H-PFF[Dap]LM-NH2) | 15 | – | –
CSCC[C@H](NC(=O)[C@H](CC(C)C)NC(=O)CNC(=O)[C@H](Cc1ccccc1)N(C)C(=O)[C@H](Cc1ccccc1)NC(=O)[C@@H]1CCCN1)C(N)=O [Example 2, HPro-Phe-MePhe-Gly-Leu-MetNH2] (H-PF[NMeF]GLM-NH2) | 25 | – | –
CCCC[C@H](NC(=O)[C@H](CC(C)C)NC(=O)CNC(=O)[C@H](Cc1ccccc1)NC(=O)[C@H](Cc1ccccc1)NC(=O)[C@@H]1CCCN1)C(N)=O [Example 8, HPro-Phe-Phe-Gly-Leu-NleNH2] (H-PFFGL[Nle]-NH2) | 49 | 3 | –
CSCC[C@H](NC(=O)[C@H](CC(C)C)NC(=O)CN(C)C(=O)[C@H](Cc1ccccc1)N(C)C(=O)[C@H](Cc1ccccc1)NC(=O)[C@@H]1CCCN1)C(N)=O [Example 11, HPro-Phe-MePhe-Sar-Leu-MetNH2] (H-PF[NMeF][Sar]LM-NH2) | 11 | – | –
